Reference: ChEMBL document CHEMBL5625242, “Discovery of brain permeable 2-Azabicyclo[2.2.2]octane sulfonamides as a novel class of presenilin-1 selective γ-secretase inhibitors” (Eur J Med Chem, 2023)

Legend:
Homo sapiens [1] = species on record: Homo sapiens; assay: Selectivity ratio of IC50 for human PSEN2/APH1B expressed in MEF cells with Psen1/2 double knockout/Aph1ABC triple knockout to IC50 for human PSEN1/APH1B expressed in MEF cells with Psen1/2 double knockout/Aph1ABC triple knockout; format: cell-based
[2] = Inhibition of human PSEN2/APH1B expressed in MEF cells with Psen1/2 double knockout/Aph1ABC triple knockout by ELISA; format: cell-based
[3] = Inhibition of human PSEN1/APH1A expressed in MEF cells with Psen1/2 double knockout/Aph1ABC triple knockout by ELISA; format: cell-based
[4] = Inhibition of human PSEN1/APH1B expressed in MEF cells with Psen1/2 double knockout/Aph1ABC triple knockout by ELISA; format: cell-based
Homo sapiens [5] = species on record: Homo sapiens; assay: Selectivity ratio of IC50 for human PSEN2/APH1A expressed in MEF cells with Psen1/2 double knockout/Aph1ABC triple knockout to IC50 for human PSEN1/APH1B expressed in MEF cells with Psen1/2 double knockout/Aph1ABC triple knockout; format: cell-based
[6] = Inhibition of human PSEN2/APH1A expressed in MEF cells with Psen1/2 double knockout/Aph1ABC triple knockout by ELISA; format: cell-based
MEF = assay: Inhibition of human PSEN1/APH1B expressed in MEF cells with Psen1/2 double knockout/Aph1ABC triple knockout at 10 uM by ELISA relative to control; format: cell-based
Homo sapiens [7] = species on record: Homo sapiens; assay: Selectivity ratio of IC50 for human PSEN1/APH1A expressed in MEF cells with Psen1/2 double knockout/Aph1ABC triple knockout to IC50 for human PSEN1/APH1B expressed in MEF cells with Psen1/2 double knockout/Aph1ABC triple knockout; format: cell-based
[8] = Metabolic stability in human liver microsomes assessed as intrinsic clearance; format: ADME, Microsome; settings: liver microsomes, read-out: CLH
[9] = Metabolic stability in mouse liver microsomes assessed as intrinsic clearance; format: ADME, Microsome; settings: liver microsomes, read-out: CLH

Row | Structure (SMILES) | IC50 [2] [nM] | IC50 [3] [nM] | IC50 [4] [nM] | IC50 [6] [nM] | microsomal CLint [8] [µL/min/mg] | microsomal CLint [9] [µL/min/mg] | Ratio IC50 (Homo sapiens [1]) | Ratio IC50 (Homo sapiens [5]) | inhibition (MEF) [%] | Ratio IC50 (Homo sapiens [7])
1 | O=C1NCCCC[C@H]1N(Cc1ccc(Br)cc1)S(=O)(=O)c1ccc(Cl)cc1 | 1700 | 38.3 | 24.5 | 4110 |  |  | > 60 | > 60 |  | 
2 | O=S(=O)(c1ccc(Cl)cc1)N1[C@@H]2CCC[C@H]1c1cn[nH]c1C2 | 380 | 47.2 |  | 272 |  |  | > 260 | > 260 |  | 
3 | O=C1C[C@@H]2CC[C@H]1[C@H](c1cc(F)ccc1F)N2S(=O)(=O)c1ccc(Cl)cc1 |  |  |  |  |  |  |  |  | 45 | 
4 | O=S(=O)(c1ccc(Cl)cc1)N1[C@H]2CC[C@H]([C@H](O)C2)[C@H]1c1ccc(C(F)(F)F)cc1 |  |  |  |  |  |  | 15 | 15 |  | 
5 | O=C1C[C@@H]2CC[C@H]1[C@@H](c1ccc(C(F)(F)F)nc1)N2S(=O)(=O)c1ccc(Cl)cc1 (racemic) | > 10000 | 690 | 390 | > 10000 |  |  | > 11 | > 11 |  | 
6 | COc1ccc([C@@H]2[C@@H]3CC[C@@H](CC3=O)N2S(=O)(=O)c2ccc(Cl)cc2)cn1 (racemic) | > 10000 | 794 | 195 | > 10000 |  |  | > 5 | > 5 |  | 
7 | O=S(=O)(c1ccc(Cl)cc1)N1[C@H]2CC[C@@H]([C@H]1c1ccc(C(F)(F)F)cc1)[C@@H](O)C2 (racemic) [listing 1 of 2 here] | 2450 | 41.7 | 7.2 | 2820 | > 347 | > 347 |  |  |  | 
8 | O=C1C[C@@H]2CC[C@H]1[C@@H](c1ccc(OC(F)(F)F)cc1)N2S(=O)(=O)c1ccc(Cl)cc1 (racemic) | > 10000 | 1620 | 190 | > 10000 |  |  | > 5 | > 5 |  | 
9 | O=C1C[C@@H]2CC[C@H]1[C@@H](c1ccc(Cl)cc1)N2S(=O)(=O)c1ccc(Cl)cc1 (racemic) | > 10000 | 1350 | 182 | > 10000 |  |  | > 5 | > 5 |  | 
10 | N#Cc1ccc(S(=O)(=O)N2[C@H]3CC[C@H](C(=O)C3)[C@H]2c2ccc(C(F)(F)F)cc2)cc1 (racemic) | > 10000 | > 10000 | 1550 | > 10000 |  |  |  |  |  | > 40
11 | O=S(=O)(c1ccc(Cl)cc1)N1[C@H]2CC[C@@H]([C@H]1c1ccccc1Cl)[C@@H](O)C2 (racemic) | 214 | 12 | 3 | 131 |  |  | 100 | 40 |  | 2
12 | O=S(=O)(c1ccc(Cl)cc1)N1[C@H]2CC[C@@H]([C@H]1c1ccc(C(F)(F)F)cc1)[C@@H](O)C2 (racemic) [listing 2 of 2 here] |  |  |  |  |  |  | > 330 | > 390 |  | > 5

Now from value to molecule, other results behind:

Row | IC50 [2] [nM] | IC50 [3] [nM] | IC50 [4] [nM] | IC50 [6] [nM] | microsomal CLint [8] [µL/min/mg] | microsomal CLint [9] [µL/min/mg] | Structure (SMILES) | Ratio IC50 (Homo sapiens [1]) | Ratio IC50 (Homo sapiens [5]) | inhibition (MEF) [%] | Ratio IC50 (Homo sapiens [7])
13 | 139 | 1.4 | 0.42 | 154 |  |  | O=S(=O)(N[C@H]1CC[C@@](c2cc(F)ccc2F)(S(=O)(=O)c2ccc(Cl)cc2)CC1)C(F)(F)F | > 300 | > 300 |  | 
14 | > 10000 | > 5370 | 1120 | > 10000 |  |  | O=C1C[C@@H]2CC[C@H]1[C@@H](c1ccc(F)c(F)c1)N2S(=O)(=O)c1ccc(Cl)cc1 (racemic) |  |  |  | > 3
15 | > 5000 | 281 | 55 | > 5000 |  |  | Cc1ccc(S(=O)(=O)N2[C@H]3CC[C@H](C(=O)C3)[C@H]2c2ccc(C(F)(F)F)cc2)cc1 (racemic) | > 100 | > 100 |  | 
16 | 2180 | 67 | 12 | 741 | 111 | 118 | N#Cc1ccc([C@@H]2[C@@H]3CC[C@@H](C[C@@H]3O)N2S(=O)(=O)c2ccc(Cl)cc2)cn1 (racemic) |  |  |  | 
17 | 380 | 37 | 25 | 370 |  |  | O=S(=O)(c1ccc(Cl)cc1)N1[C@H]2CC[C@@H]([C@H]1c1cc(F)ccc1F)[C@@H](O)C2 (racemic) | 12 | 12 |  | 
18 | > 5000 | 316 | 34 | > 10000 |  |  | O=C1C[C@@H]2CC[C@H]1[C@@H](c1ccc(C(F)(F)F)cc1)N2S(=O)(=O)c1ccc(Cl)cc1 (racemic) | > 150 | > 150 |  | 9
19 | 6460 | 3240 | 288 | 6170 |  |  | CCOC(=O)Nc1ccc([C@@H]2[C@@H]3CC[C@@H](CC3=O)N2S(=O)(=O)c2ccc(Cl)cc2)cc1 (racemic) | > 20 | > 20 |  | > 11
20 | > 10000 | 7080 | 512 | > 10000 |  |  | O=C1C[C@@H]2CC[C@H]1[C@@H](c1cc(F)ccc1F)N2S(=O)(=O)c1ccc(Cl)s1 (racemic) |  |  |  | 13
21 | > 10000 | 1020 | 426 | > 10000 |  |  | O=C1C[C@@H]2CC[C@H]1[C@@H](c1cc(F)ccc1F)N2S(=O)(=O)c1ccc(Cl)cc1 (racemic) | 25 | 25 |  | 
22 | 257 | 6.9 | 2.4 | 147 |  |  | N#Cc1ccc([C@@H]2[C@@H]3CC[C@@H](C[C@@H]3O)N2S(=O)(=O)c2ccc(Cl)cc2)c(F)c1 (racemic) | 100 | 40 |  | 2
23 | > 10000 | > 10000 | 1440 | > 10000 |  |  | COc1ccc(S(=O)(=O)N2[C@H]3CC[C@H](C(=O)C3)[C@H]2c2ccc(C(F)(F)F)cc2)cc1 (racemic) |  |  |  | > 40
